Source: patent US12043448B2, “Compositions for containers and other articles and methods of using same” (SWIMC LLC, priority 2012, dated 2024)

The molecules below were run on MCF-7, clone WS8, cells (assay: MCF-7 cell proliferation assay of estrogenic activity). Details: logarithmic value (base 10) of Relative Proliferative Effect in the MCF-7 assay; table gives 'expected or measured' values.
Format: cell-based, human
Text: The MCF-7 assay is a useful test for assessing whether a polyhydric phenol compound is appreciably non-estrogenic. The MCF-7 assay uses MCF-7, clone WS8, cells to measure whether and to what extent a substance induces cell proliferation via estrogen receptor (ER)-mediated pathways. The method is described in “Test Method Nomination: MCF-7 Cell Proliferation Assay of Estrogenic Activity” submitted for validation by CertiChem, Inc. to the National Toxicology Program Interagency Center for the Evaluation of Alternative Toxicological Methods (NICEATM) on Jan. 19, 2006 (available online at http://iccvam.niehs.nih.gov/methods/endocrine/endodocs/SubmDoc.pdf).
A brief summary of the method of the aforementioned MCF-7 assay is provided below. MCF-7, clone WS8, cells are maintained at 37° C. in RMPI (or Roswell Park Memorial Institute medium) containing Phenol Red (e.g., GIBCO Catalog Number 11875119) and supplemented with the indicated additives for routine culture. An aliquot of cells maintained at 37° C. are grown for 2 days in phenol-free media containing 5% charcoal stripped fetal bovine serum in a 25 cm^2 tissue culture flask. Using a robotic dispenser such as an epMotion 5070 unit, MCF-7 cells are then seeded at 400 cells per well in 0.2 ml of hormone-free culture medium in Corning 96-well plates. The cells are adapted for 3 days in the hormone-free culture medium prior to adding the chemical to be assayed for estrogenic activity. The media containing the test chemical is replaced daily for 6 days. At the end of the 7-day exposure to the test chemical, the media is removed, the wells are washed once with 0.2 ml of HBSS (Hanks' Balanced Salt Solution), and then assayed to quantify amounts of DNA per well using a micro-plate modification of the Burton diphenylamine (DPA) assay, which is used to calculate the level of cell proliferation.
RPE is the ratio between the EC50 of the test chemical and the EC50 of the control substance 17-beta estradiol times 100, where EC50 is “effective concentration […]” or half-maximum stimulation concentration for cell proliferation measured as total DNA in the MCF-7 assay.

Structure (SMILES)	Log RPE
C[C@]12CC[C@@H]3c4ccc(O)cc4CC[C@H]3[C@@H]1CC[C@@H]2O [17β-estradiol, reference compound]	2.00
Oc1ccc(Cc2ccc(O)cc2)cc1 [Bisphenol F, reference compound]	−2
O=S(=O)(c1ccc(O)cc1)c1ccc(O)cc1 [Bisphenol S, reference compound]	−2
O=c1c(-c2ccc(O)cc2)coc2cc(O)cc(O)c12 [Genistein, reference compound]	−2
CC(c1ccc(O)cc1)(c1ccc(O)cc1)c1ccc(O)cc1 [Structure 3]	−3
CC(c1ccccc1)(c1ccc(O)cc1)c1ccc(O)cc1 [Structure 4]	−3
CC(C(=O)O)(c1ccc(O)cc1)c1ccc(O)cc1 [Structure 5]	less than −4
CCCC(c1cc(C(C)(C)C)c(O)cc1C)c1cc(C(C)(C)C)c(O)cc1C [Structure 7]	less than −4
CC(C)(c1ccc(O)cc1)c1ccc(C(C)(C)c2ccc(O)cc2)cc1 [Structure 10]	less than −4
Oc1ccccc1Cc1ccccc1O [Structure 11]	less than −4
CC(C)(C)c1cc(O)c(C(C)(C)C)cc1O [Structure 12]	less than −4
CC(C)(c1cc(Br)c(O)c(Br)c1)c1cc(Br)c(O)c(Br)c1 [Structure 16]	−3
C/C=C(/C(=C/C)c1ccc(O)cc1)c1ccc(O)cc1 [dienestrol, reference compound]	about 2
CC/C(=C(/CC)c1ccc(O)cc1)c1ccc(O)cc1 [diethylstilbestrol, reference compound]	about 2
